According to patent US8791098B2 (priority 2008, dated 2014):
≈ marks a conversion by molar mass, not a printed value.

Tests used:
[1] = tested on: COS-7; experiment: cells; format: cell-based, African green monkey; details: Chlorocebus sabaeus; COS-7, average of two measurements; read-out: IC50
Protocol: (§1) Cytotoxicity testing of pretubulysin (AU827), N-desmethyl-pretubulysin (AU816) and Tubulysin A and D was performed as follows: Cells were seeded at 6×10^3 cells per well of 96-well plates in 180 μl complete medium and directly treated with varying concentrations of (pre-)tubulysins diluted in methanol. Each compound was tested in duplicate as well as the internal methanol control. After 5 d incubation, 20 μl of 5 mg/ml MTT (Thiazolyl blue tetrazolium bromide) in PBS was added per well and it was further incubated for 2 h at 37° C. The medium was then discarded and cells were washed with 100 μl PBS before adding 100 μl 2-propanol/10 N HCl (250:1) in order to dissolve formazan granules.
(§2) The absorbance at 570 nm was measured using a microplate reader (EL808, Bio-Tek Instruments Inc.), and cell viability was expressed as percentage relative to the respective methanol control. IC50 values were obtained by plotting relative growth inhibition in % against the compound concentration on a logarithmic scale. After sigmoidal curve fitting IC50 values can be determined. The IC50[per ml] are shown in the following table (values represent the average of two measurements): […]

[2] = tested on: L929; experiment: cells; format: cell-based, mouse; details: Mus musculus; L929, average of two measurements; read-out: IC50
Protocol: as §1, §2

[3] = tested on: HepG2; experiment: cells; format: cell-based, human; details: Homo sapiens; HepG2, average of two measurements; read-out: IC50
Protocol: as §1, §2

[4] = tested on: HL-60; experiment: cells; format: cell-based, human; details: Homo sapiens; HL-60, average of two measurements; read-out: IC50
Protocol: as §1, §2

[5] = tested on: U937; experiment: cells; format: cell-based, human; details: Homo sapiens, U-937; U937, average of two measurements; read-out: IC50
Protocol: as §1, §2

[6] = tested on: KB3.1; experiment: cells; format: cell-based, human; details: Homo sapiens, KB 3-1; KB3.1, average of two measurements; read-out: IC50
Protocol: as §1, §2

[7] = tested on: A431; experiment: cells; format: cell-based, human; details: Homo sapiens, A-431; A431, average of two measurements; read-out: IC50
Protocol: as §1, §2

[8] = tested on: A549; experiment: cells; format: cell-based, human; details: Homo sapiens; A549, average of two measurements; read-out: IC50
Protocol: as §1, §2

[9] = tested on: K562; experiment: cells; format: cell-based, human; details: Homo sapiens; K562, average of two measurements; read-out: IC50
Protocol: as §1, §2

[10] = tested on: HEK293T; experiment: cells; format: cell-based, human; details: Homo sapiens, HEK-293T, average of two measurements, read-out: IC50
Protocol: as §1, §2

[11] = tested on: SW480; experiment: cells; format: cell-based, human; details: Homo sapiens; SW480, average of two measurements; read-out: IC50
Protocol: as §1, §2

[12] = tested on: SH-SY5Y; experiment: cells; format: cell-based, human; details: Homo sapiens, average of two measurements, read-out: IC50
Protocol: as §1, §2

[13] = tested on: HL-60 cells; experiment: Apoptosis induction, DNA laddering; format: cell-based, human; details: for apoptosis induction (DNA laddering): HL-60, 24 hours after treatment
Protocol: Detection of DNA laddering: Apoptotic DNA fragmentation was investigated using the method described by Gong et al. 1-2 μg DNA were loaded into a well of a 1.7% agarose gel, separated by electrophoresis at 4 volts/cm for approximately 4 hours using 0.5×TBE buffer (0.045 M Tris-borate, 1 mM EDTA). The resulting bands were stained by ethidium bromide and detected under UV-light.
Anti-mitotic agents like epothilone (Trivedi, M. et al., Future Oncol. 4, 483-500 (2008)) disorazol (Elnakady, Y. A. et al., Biochem. Pharmacol. 67, 927-935 (2004); Irschik, H. et al., Antibiot. (Tokyo) 48, 31-35 (1995)), and tubulysin (Khalil, M. et al., Chembiochem. 7, 678-683 (2006)) are known to induce apoptosis in different cancer cell lines. A hallmark of apoptosis induced by animitotic agent is the cleavage the chromosomal DNA into distinct fragments which can be separated via gel electrophoresis to give the so called DNA-Ladder. We tested the ability of pre-tubulysin-816 and -827 to induce apoptosis in HL-60 cell lines. Growing cells were treated with different concentrations of the drugs for 24 and 48 hours. After that cells were collected with centrifugation and the chromosomal DNA was separated by using agarose gel electrophoresis as described in the methods section. The resulting DNA bands were stained with ethidium bromide and visualized under UV-light. […] However, the concentration of Pre-tubulysin-816 that was needed to induce apoptosis in HL-60 cells was about 10 folds higher than that of pre-tubulysin-827 under the same experimental conditions. In Summary pre-tubulysins 816 and 827 are novel antimitotic drugs that target the microtubules, induce G2M arrest, and induce apoptosis in cancer cell lines. However, the molecular details of apoptosis induction caused by these Drugs is still to be investigated.

[14] = tested on: KB.3.1 cells; experiment: Cell cycle analysis (FACS, DNA content); format: cell-based, human
Protocol: Cell cycle analysis: approximately 10^6 cells were harvested by centrifugation and fixed in −20° C. cold 80% methanol. After 30 min of incubation on ice, the cells were washed with PBS and then with saponin containing PBS (0.1%). For DNA staining cells were incubated for 30 min at 37° C. in a solution containing 20 μg ml^−1 Propidium iodide, and 1 mg ml^−1 RNase. Samples were analysed by FacScan (Becton Dickinson).
All drugs that target the microtubules are known to induce a cell cycle arrest in G2M phase in different cell lines. The ability of pre-tubulysin-816 and -827 on the progress of cell cycle in the cervices carcinoma cell line KB.3.1 was tested. Cells were treated with different concentrations of the drugs and incubated for 24 hours under cultivation conditions. After the incubation time was ended, cells were collected by centrifugation, fixed and the DNA was labeled as described in the method sections. The DNA content of the cells was detected via FACS analysis. The resulting data were calculated using Dean-Jett-Fox algorithm.

[15] = tested on: SW-480; experiment: Anti-proliferation MTT assay (Example 2, Table 1); format: cell-based; details: SW480; SW-480 human colon adenocarcinoma
Protocol: A given number of cells were cultivated in 96-well plates with serial dilutions of the drugs up to 100 ng/ml. Tubulysin A is used as a positive control, whereas methanol is used as a negative control. After 5 days of incubation the metabolic activities of the cells were measured using MTT-assay as described under the methods section.

Structure (SMILES) | IC50 [1] [ng/mL] | IC50 [2] [ng/mL] | IC50 [3] [ng/mL] | IC50 [4] [ng/mL] | IC50 [5] [ng/mL] | IC50 [6] [ng/mL] | IC50 [7] [ng/mL] | IC50 [8] [ng/mL] | IC50 [9] [ng/mL] | IC50 [10] [ng/mL] | IC50 [11] [ng/mL] | IC50 [12] [ng/mL] | apoptosis induction (DNA laddering) [13] | cells accumulated in the G2M-phase ([14]; KB3.1 cells, 100 ng/ml, 24 h (control approximately 30%)) [%] | IC50 [15] [ng/mL] | concentration needed to induce apoptosis relative to pre-tubulysin-827 ([13]; HL-60, same experimental conditions) | G2M cell cycle arrest ([14]; KB.3.1 cells, 24 hours)
CC[C@H](C)[C@H](NC(=O)[C@H]1CCCCN1C)C(=O)N(C)[C@H](CCc1nc(C(=O)N[C@@H](Cc2ccccc2)C[C@H](C)C(=O)O)cs1)C(C)C [pre-tubulysin-827, pretubulysin] | 1.13 (≈ 1.69 nM) | 3.87 (≈ 5.78 nM) | 0.64 (≈ 0.955 nM) | 0.0142 (≈ 0.0212 nM) | 0.043 (≈ 0.0642 nM) | 2.32 (≈ 3.46 nM) | 1.24 (≈ 1.85 nM) | 4.35 (≈ 6.49 nM) | 0.35 (≈ 0.522 nM) | 0.227 (≈ 0.339 nM) | 0.21 (≈ 0.313 nM) | 0.61 (≈ 0.911 nM) | able to induce apoptosis | 65 | 0.15 (≈ 0.224 nM) |  | 
CC[C@H](C)[C@H](NC(=O)[C@H]1CCCCN1C)C(=O)N(C)[C@H](CCc1nc(C(=O)N[C@H](CCC(=O)O)Cc2ccccc2)cs1)C(C)C [pre-tubulysin-816, N-desmethyl-pretubulysin] | 9.63 (≈ 14.7 nM) | 40 (≈ 60.9 nM) | 8.75 (≈ 13.3 nM) | 0.22 (≈ 0.335 nM) | 0.38 (≈ 0.579 nM) | 26.3 (≈ 40.1 nM) | 0.34 (≈ 0.518 nM) | 31.2 (≈ 47.6 nM) | 2.5 (≈ 3.81 nM) | 1.68 (≈ 2.56 nM) | 3.16 (≈ 4.82 nM) | 2.9 (≈ 4.42 nM) | able to induce apoptosis |  | 1.37 (≈ 2.09 nM) | about 10 folds | induced an accumulation of the cells in the G2M-phase
